Where two headings read alike, the source gives them in different places.
Assays:
[1] = test system: Plasmodium berghei (Pb-Luc) exoerythrocytic-stage parasites
HepG2-A16-CD81EGFP cells [2] = test system: HepG2-A16-CD81EGFP cells
Plasmodium DHODH enzyme = target: T1, Plasmodium DHODH enzyme (Plasmodium falciparum, UniProt Q08210); assay: DHODH assay; conditions: data not shown
T1 sequence (Q08210 24-569): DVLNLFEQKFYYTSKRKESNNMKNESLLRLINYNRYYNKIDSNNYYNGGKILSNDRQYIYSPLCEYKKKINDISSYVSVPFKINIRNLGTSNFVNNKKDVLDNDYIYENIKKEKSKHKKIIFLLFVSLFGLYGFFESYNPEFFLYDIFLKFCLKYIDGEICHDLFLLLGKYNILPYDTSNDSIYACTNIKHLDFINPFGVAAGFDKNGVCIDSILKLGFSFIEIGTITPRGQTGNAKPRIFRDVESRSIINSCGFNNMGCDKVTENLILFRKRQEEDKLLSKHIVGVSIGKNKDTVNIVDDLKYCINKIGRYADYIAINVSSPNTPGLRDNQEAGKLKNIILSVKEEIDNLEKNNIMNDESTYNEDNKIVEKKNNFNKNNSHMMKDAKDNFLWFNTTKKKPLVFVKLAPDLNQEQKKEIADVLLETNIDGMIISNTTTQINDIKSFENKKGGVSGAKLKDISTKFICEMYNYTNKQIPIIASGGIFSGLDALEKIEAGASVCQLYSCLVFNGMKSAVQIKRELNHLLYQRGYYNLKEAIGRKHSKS

[3] = test system: P. falciparum Dd2 erythrocytic stage; assay: Dd2 erythrocytic-stage assay (SYBR Green) for DOS compounds; conditions: for IC50: read-out: Erythrocytic-stage (Pf Dd2) IC50, Figure 4b
HepG2-A16-CD81EGFP cells [4] = assay: cells; conditions: Homo sapiens; for IC50: HepG2, read-out: Tox IC50
[5] = only compound of the set tested with exposure; cited from earlier work
[6] = test system: Plasmodium berghei (Pb-Luc) exoerythrocytic-stage parasites; assay: microbe, parasite or virus in culture; conditions: for IC50: read-out: PbLuc IC50, dose response, 1/3 dilutions, max conc. 10 or 50 uM, unit inferred
[7] = test system: Plasmodium cynomolgi exoerythrocytic-stage small (hypnozoites) and large (liver stage schizonts) parasites; assay: P. cynomolgi liver assay in primary hepatocytes; conditions: for inhibition at 0.1 µM / inhibition at 1 µM / inhibition at 10 µM: Plasmodium cynomolgi, Hepatocyte
[8] = test system: P. falciparum 3D7 parasites; assay: Asexual erythrocytic-stage SYBR Green I proliferation assay, 1536-well; format: cell-based, Plasmodium falciparum; conditions: Plasmodium falciparum, 3D7, read-out: erythrocytic-stage P. falciparum IC50, values reported in Table S1, Additional File 1
[9] = test system: P. berghei expressing GFP (Pb-GFP) in Huh7.5.1 cells; assay: Flow cytometry assay of traversal, invasion, EEF frequency and EEF development; format: cell-based, Plasmodium berghei; conditions: 2 hours post infection; 1 μM
Huh7.5.1 cells = assay: Cytotoxicity in Huh7.5.1 cells (Figure S4); conditions: at 10 μM
[10] = target: QuantiLum Recombinant Luciferase (Photinus pyralis, UniProt P08659); assay: Bioluminescence quantification of compound luciferase inhibition
[11] = test system: Pb-Luc exoerythrocytic-stage parasites in Huh7.5.1 cells; assay: Pb-Luc time of action assay (modified 384-well luciferase assay); conditions: Plasmodium berghei
[12] = read-out: Exoerythrocytic-stage Pb-Luc IC50, Figure 4b, first assay
[13] = read-out: Exoerythrocytic-stage Pb-Luc IC50, Figure 4b, second assay (value in parentheses)
[14] = HepG2, read-out: HepG2 Tox% @ 50 uM rep1
[15] = read-out: Inhibition% @ 50 uM rep1
[16] = read-out: Inhibition% @ 50 uM rep2
[17] = read-out: % inhibition normalized to untreated control, Large
[18] = read-out: % inhibition normalized to untreated control, Small

QuantiLum Recombinant Luciferase, sequence (P08659 whole entry): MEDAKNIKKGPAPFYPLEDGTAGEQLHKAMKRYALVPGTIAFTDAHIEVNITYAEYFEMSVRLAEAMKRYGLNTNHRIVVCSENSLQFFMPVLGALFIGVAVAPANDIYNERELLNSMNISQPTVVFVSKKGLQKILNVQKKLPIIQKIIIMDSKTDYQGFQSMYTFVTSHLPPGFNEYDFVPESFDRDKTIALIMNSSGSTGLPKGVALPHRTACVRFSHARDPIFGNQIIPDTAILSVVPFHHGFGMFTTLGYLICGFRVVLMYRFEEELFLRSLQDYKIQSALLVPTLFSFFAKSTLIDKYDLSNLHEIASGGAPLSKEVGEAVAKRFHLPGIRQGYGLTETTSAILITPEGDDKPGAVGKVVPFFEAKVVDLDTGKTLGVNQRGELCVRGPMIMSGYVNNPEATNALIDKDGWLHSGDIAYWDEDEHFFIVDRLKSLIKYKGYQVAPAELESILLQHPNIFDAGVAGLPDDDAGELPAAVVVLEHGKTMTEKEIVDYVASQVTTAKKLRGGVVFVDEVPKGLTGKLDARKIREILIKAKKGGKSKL

Row | SMILES | IC50 [1, 12] [µM] | IC50 [1, 13] [µM] | activity in a DHODH assay (Plasmodium DHODH enzyme) | IC50 [3] [µM] | cytotoxicity at 50 µM (HepG2-A16-CD81EGFP cells [4]; [14]) [%] | IC50 (HepG2-A16-CD81EGFP cells [4]) [µM] | inhibition at 50 µM [6, 15] [%] | inhibition at 50 µM [6, 16] [%] | IC50 [6] [µM] | inhibition at 0.1 µM [7, 17] [%] | inhibition at 1 µM [7, 17] [%] | inhibition at 10 µM [7, 17] [%] | inhibition at 0.1 µM [7, 18] [%] | inhibition at 1 µM [7, 18] [%] | inhibition at 10 µM [7, 18] [%] | further results
1 | CS(=O)(=O)N1[C@H](C#N)[C@H](c2ccc(C#Cc3cccc(F)c3)cc2)[C@H]1CO [BRD0326] | 0.3 | 0.15 | inactive | > 10 |  |  |  |  |  |  |  |  |  |  |  | IC50 ([1]; read-out: Pb-Luc IC50, Figure 4a, stereoisomers tested in dose response): 0.152 µM; IC50 ([1]; read-out: Pb-Luc IC50, Figure 4a, stereoisomers tested in dose response, listed as BRD0326 SSS): < 1 µM; CC50 (HepG2-A16-CD81EGFP cells [2]): > 10 µM; erythrocytic-stage activity ([3]; in words): no erythrocytic-stage activity
2 | CCCNC(=O)N1[C@H](CO)[C@H](c2ccc(C#Cc3cccc(F)c3)cc2)[C@@H]1C#N [BRD9781] | 0.08 | 0.04 | inactive | 8.55 |  |  |  |  |  |  |  |  |  |  |  | IC50 ([1]; read-out: Pb-Luc IC50, Figure 4a, stereoisomers tested in dose response, listed as BRD9781/7539 series SRR): 0.039 µM
3 | Brc1ccc(Nc2nc3ccccc3nc2Nc2ccc(Br)cc2)cc1 [MMV007224] |  |  |  |  | 100 | 1.94 | 103 | 103 | 0.17 | 23 | 43 | 96 | 30 | 20 | 67 | inhibition at 50 µM (HepG2-A16-CD81EGFP cells [4]; HepG2, read-out: Tox max inhibition (%) @ 50 uM): 99%; pharmacokinetic exposure in vivo [5]: any pharmacokinetic exposure in vivo; inhibition at 50 µM ([6]; read-out: PbLuc max inhibition (%) @ 50 uM): 101%; activity against small or large forms ([7]; at 10 μM, in words): moderate activity
4 | COc1cccc(C=Cc2nc(=O)c3ccccc3o2)c1OC [MMV666693] |  |  |  |  | -0.938 | > 10 | 102 | 103 | 0.00982 | 22 | -3 | 15 | 29 | 16 | 30 | IC50 [8]: < 0.1 µM; effect on sporozoite invasion [9]: not affected; effect on sporozoite traversal of hepatocytes [9]: slight effect; cytotoxicity at 50 µM (HepG2-A16-CD81EGFP cells [4]; HepG2, read-out: HepG2 Tox% @ 50 uM rep2): 7%; inhibition at 10 µM (HepG2-A16-CD81EGFP cells [4]; HepG2, read-out: Tox max inhibition (%) @ 10 uM): 123%; inhibition at 10 µM ([6]; read-out: PbLuc max inhibition (%) @ 10 uM): 108%; cytotoxicity in Huh7.5.1 cells (Huh7.5.1 cells): slight cytotoxicity; IC50 [10]: 5.33 µM; Emax ([10]; read-out: LucInhib max inhibition): 89%; IC50 ([11]; Huh-7.5.1, read-out: Pb-Luc IC50, Treatment: 1): 0.172 µM; IC50 ([11]; Huh-7.5.1, read-out: Pb-Luc IC50, Treatment: 2): 0.02 µM; IC50 ([11]; Huh-7.5.1, read-out: Pb-Luc IC50, Treatment: 3): 0.297 µM; IC50 ([11]; Huh-7.5.1, read-out: Pb-Luc IC50, Treatment: 4): 0.015 µM; IC50 ([11]; Huh-7.5.1, read-out: Pb-Luc IC50, Treatment: 5): 0.016 µM; IC50 ([11]; Huh-7.5.1, read-out: Pb-Luc IC50, Treatment: 6): 0.012 µM
